For this series the following is noted: Liquid; for mass density: 298.15 K, 101.33 kPa.

± gives the expanded uncertainty stated by the source.

A word on the mass density: it is mass per unit of volume.

With `CCO` [ethanol], the mass density was found to be 785.1 ± 0.3 kg/m3 and the Normal boiling temperature came out at 78.31 ± 0.03 °C.

For `CO` [methanol], the mass density came out at 786.5 ± 0.3 kg/m3 and the Normal boiling temperature came to 64.52 ± 0.03 °C.

With `CCCO` [propan-1-ol], the mass density stood at 799.5 ± 0.2 kg/m3 and the Normal boiling temperature is 97.04 ± 0.03 °C.

Turning to `CC(C)O` [propan-2-ol], the mass density stood at 780.8 ± 0.3 kg/m3 and the Normal boiling temperature was found to be 82.26 ± 0.03 °C.

The values are drawn from the NIST ThermoML archive (doi:10.1021/je049778g).
